Results on ten compounds are retold here after BindingDB's records for doi:10.1080/14756360109162353 (Cardiff University, 2001).

“And” between values parts separate entries of the source, which are not always exact repeats. Identical values can stand only once.

The experiment addresses T1, 17-beta-hydroxysteroid dehydrogenase type 3 (Homo sapiens, UniProt P37058).
T1 sequence (P37058 whole entry): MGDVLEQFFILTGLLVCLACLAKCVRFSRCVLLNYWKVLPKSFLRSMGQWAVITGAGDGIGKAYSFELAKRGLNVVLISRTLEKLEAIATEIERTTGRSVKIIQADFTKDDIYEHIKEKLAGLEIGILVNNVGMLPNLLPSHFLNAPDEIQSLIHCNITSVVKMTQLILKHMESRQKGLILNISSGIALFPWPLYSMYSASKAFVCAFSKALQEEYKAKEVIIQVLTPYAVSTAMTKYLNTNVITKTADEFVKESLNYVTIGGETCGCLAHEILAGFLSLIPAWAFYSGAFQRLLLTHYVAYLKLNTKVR
The experiment in a line: Inhibition Assay. Conditions: pH 7.45; 37 °C. The source says: Inhibition assay of human testes mcrosomal 17 beta-hydroxysteroid dehydrogenase for the reduction of androstenedione.
Regarding `O=c1c(O)c(-c2cc(O)c(O)c(O)c2)oc2cc(O)cc(O)c12`, the IC50 is 100 µM.

`O=c1c(O)c(-c2ccc(O)c(O)c2)oc2cc(O)ccc12` [2-(3,4-dihydroxyphenyl)-3,7-dihydroxy-chromen-4-one] registered an IC50 of 32.4 µM.

In turn, `Oc1ccc(O)c(-c2ccccc2)c1` [2-Phenylhydroquinone, 7] gave an IC50 of 14.8 µM. Compared with the last compound, the IC50 is about 2.2-fold lower.

In turn, `CCN(CC)CCOc1ccc(/C(=C(\Cl)c2ccccc2)c2ccccc2)cc1` [2-[4-[(Z)-2-chloranyl-1,2-diphenyl-ethenyl]phenoxy]-N,N-diethyl-ethanamine;2-oxidanylpropane-1,2,3-tricarboxylic acid] gave an IC50 of 76.2 µM.

As to `O=C1C=CC(=O)C(c2ccccc2)=C1` [2-phenylcyclohexa-2,5-diene-1,4-dione], the IC50 turned out to be 5.7 µM.

Compound `COc1ccc(-c2coc3cc(O)cc(O)c3c2=O)cc1` [5,7-dihydroxy-3-(4-methoxyphenyl)-4H-chromen-4-one] returned an IC50 of 10.8 µM.

`O=c1cc(-c2ccccc2)oc2ccc(O)cc12` [6-hydroxy-2-phenyl-4H-chromen-4-one] returned an IC50 of 16.4 µM.

`C#CCC1(C(=O)OC(=C(c2ccccc2)c2ccccc2)c2ccccc2)CC(=O)NC1=O` (stereo not drawn) [17Beta-HSD Inhibitor, 3] had an IC50 of 9.15 µM.

Regarding `O=c1cc(-c2ccc(O)cc2)oc2cc(O)cc(O)c12` [Naringenin, 18], the IC50 was 21.3 µM and 16.4 µM.

Compound `O=c1c(-c2ccc(O)cc2)coc2cc(O)cc(O)c12` [Prunetol] yielded an IC50 of 30.3 µM.

A word on the IC50: it is the concentration at which inhibition is half-maximal.
